In patent US20230109839A1, “THERAPEUTIC AGENT FOR TAUOPATHIES” (SUMITOMO PHARMA CO., LTD., priority 2020, published 2023):

Each molecule was assayed against T1, human Nav1.1 (Homo sapiens, UniProt P35498) (assay: Amplification of Nav1.1-derived voltage-gated sodium current (Nav1.1 current), automated patch clamp (Test 1)). Conditions: Concentration for evaluation 1 μM; HEK293 cell line stably expressing human Nav1.1.
T1 construct: host or cells: HEK293
Format: cell-based
Protocol: Test 1: Evaluation of the Amplification of Nav1.1-Derived Voltage-Gated Sodium Current (Nav1.1 Current) by Using a Cell Line Stably Expressing Human Nav1.1
(1) Preparation of Test Compound Solution
Test compounds were prepared by dissolving in DMSO at 200 times of the concentration at evaluation, and diluting the obtained solution to twice the concentration of evaluation with an extracellular fluid (135 mmol/L NaCl, 4 mmol/L KCl, 1 mmol/L MgCl2, 5 mmol/L CaCl2, 5 mmol/L Glucose, 10 mmol/L HEPES).
(2) Induction and Measurement of Nav1.1 Current
A HEK293 cell line stably expressing human Nav1.1 (cat #CYL3009, Eurofins DiscoverX Products, LLC, Human Embryonic Kidney 293) was purchased, and used in the present test. Nav1.1 current was induced by stimulating Ramp wave voltage. Detection of current which accompanied with the stimulation of voltage was carried out by a patch-clamp voltage-clamp method using HTS automated patch clamp system (SynchroPatch 768PE, Nanion Technologies GmbH, Germany). Only cells with more than 500 pA of voltage-gated sodium channel current were used for the evaluation of the activity of compounds on Nav1.1 current because there was the possibility that currents derived from endogenous voltage-gated sodium channels accounted for large proportion in cells with less than 500 pA of voltage-gated sodium channel current which was induced by stimulating Ramp wave voltage.
(3) Pharmacological Effect on Nav1.1 Current
The effect of test compounds on the amplification of Nav1.1-derived voltage-gated sodium current was evaluated by using a cell line stably expressing human Nav1.1 and HTS automated patch clamp system. In other words, test compounds were added in an extracellular fluid containing 1% DMSO, and evaluated as a change of the peak value of Nav1.1 current and the area under the curve (AUC).
(4) Method for Pharmacological Evaluation
The Nav1.1 current amplification rates of test compounds were calculated by the following formula:
Nav1.1 current amplification rate (%)=100×[the peak value of Nav1.1 current or the area under the curve after the addition of test compounds]/[the peak value of Nav1.1 current or the area under the curve before the addition of test compounds]−100

SMILES	Nav1.1 current amplification rate (%)
Cc1ncc(-c2cncc(NC(=O)Cn3nc(C4=CCC(C)CC4)ccc3=O)c2)o1 (stereo not drawn) [Example 380]	82%
CN(C)c1nc2cc(NC(=O)Cn3ncc4ncc(N(C)C5CCCC5)nc43)ccc2o1 [Example 674]	62%
CC1CC=C(c2ccc(=O)n(CC(=O)Nc3ccn4cncc4c3)n2)CC1 (stereo not drawn) [Example 338]	241%
CC1CC=C(c2ccc(=O)n(CC(=O)N3CCc4c3cccc4C(C)(C)O)n2)CC1 (stereo not drawn) [Example 277]	210%
CC1(C)CC=C(c2ccc(=O)n(CC(=O)N3CCc4c(N5CCOCC5)cccc43)n2)CC1 [Example 432]	280%

Second part, the molecule after the results:

Nav1.1 current amplification rate (%)	SMILES
78%	CN(c1cnc2cnn(CC(=O)Nc3cnc4ccccc4c3)c2n1)C1CC1 [Example 719]
44%	O=C(Cn1ncc2cnc(-c3ccc(C(F)(F)F)s3)nc21)Nc1ccn2ncnc2c1 [Example 779]
13%	CC(C1CCC1)N(C)c1cnc2cnn(CC(=O)Nc3ccn4ncnc4c3)c2n1 (stereo not drawn) [Example 634]
53%	CN(c1cnc2cnn(CC(=O)Nc3ccc(-n4ccnc4)nc3)c2n1)C1CCCC1 [Example 682]
34%	CN(c1cnc2cnn(CC(=O)Nc3ccc4ncnn4c3)c2n1)C1CC1 [Example 664]
27%	CN(c1ncc2cnn(CC(=O)Nc3ccn4ncnc4c3)c2n1)C1CC1 [Example 794]
132%	CN(c1cnc2cnn(CC(=O)Nc3ccc4oc(C(F)F)nc4c3)c2n1)C1CCCC1 [Example 678]
45%	CN(CC1(C)CC1)c1cnc2cnn(CC(=O)Nc3ccc4ncnn4c3)c2n1 [Example 667]
36%	CCC1(C)CCN(c2ncc3cnn(CC(=O)Nc4ccn5ncnc5c4)c3n2)CC1 [Example 789]

Same assay, conditions: Concentration for evaluation 3 μM; HEK293 cell line stably expressing human Nav1.1

SMILES	Nav1.1 current amplification rate (%)
CC1CC=C(c2ccc(=O)n(CC(=O)N3CCc4c(CO)cccc43)n2)CC1 (stereo not drawn) [Example 266]	108%
CC1CC=C(c2ccc(=O)n(CC(=O)N3CCc4c(CN5CCOCC5)cccc43)n2)CC1 (stereo not drawn) [Example 270]	481%
Cc1nc2cc(NC(=O)Cn3nc(C4=CCC(C)CC4)ccc3=O)ccn2c1C (stereo not drawn) [Example 329]	100%

Same assay, conditions: Concentration for evaluation 10 μM; HEK293 cell line stably expressing human Nav1.1

SMILES	Nav1.1 current amplification rate (%)
COc1cc(-c2cc(Cl)cs2)nn(CC(=O)N2CCc3c(N4CCOCC4)cccc32)c1=O [Example 479]	420%
CC1CC=C(c2ccc(=O)n(CC(=O)N3CC=C(c4ccccn4)CC3)n2)CC1 (stereo not drawn) [Example 420]	39%
Cc1cc(NC(=O)Cn2nc(N3CCC(C)CC3)ccc2=O)cc(C)n1 [Example 54]	20%
CC1CC=C(c2ccc(=O)n(CC(=O)N3CCN(c4cncc(C(F)(F)F)c4)CC3)n2)CC1 (stereo not drawn) [Example 401]	286%
N#Cc1ccc(NC(=O)Cn2nc(N3CCCC4(CCC4)C3)ccc2=O)cc1 [Example 33]	220%
CC1CC=C(c2ccc(=O)n(CC(=O)Nc3ccnc(CN4CCOCC4)c3)n2)CC1 (stereo not drawn) [Example 373]	35%
CC1CCN(c2ccc(=O)n(CC(=O)Nc3ccnc(C(F)(F)F)c3)n2)CC1 [Example 52]	248%
CC1CCN(c2ccc(=O)n(CC(=O)Nc3ccc4scnc4c3)n2)CC1 [Example 87]	255%
Cc1nc2cc(NC(=O)Cn3nc(N4CCC(C)CC4)ccc3=O)ccc2o1 [Example 69]	137%
Cc1cncc(N2CCN(C(=O)Cn3nc(C4=CCC(C)(C)CC4)ccc3=O)CC2)c1 [Example 442]	414%
N#Cc1ccc(NC(=O)Cn2nc(C3=CCCCC3)ccc2=O)cc1 [Example 39]	125%
COc1cc(=O)n(CC(=O)Nc2ccn3ccnc3c2)nc1C1=CCC(C)(C)CC1 [Example 459]	118%
COc1cnc(C2=CCN(C(=O)Cn3nc(C4=CCC(C)CC4)ccc3=O)CC2)cn1 (stereo not drawn) [Example 399]	102%

Second part, the molecule after the results:

Nav1.1 current amplification rate (%)	SMILES
60%	O=C(Cn1ncc2cnc(N3CCOCC3)nc21)Nc1ccn2ncnc2c1 [Example 767]
199%	CC1CC=C(c2ccc(=O)n(CC(=O)Nc3ccn4cc(C(F)(F)F)nc4c3)n2)CC1 (racemic) [Example 421]

Same assay, conditions: Concentration for evaluation 50 μM; HEK293 cell line stably expressing human Nav1.1

SMILES	Nav1.1 current amplification rate (%)
CC1CC=C(c2ccc(=O)n(CC(=O)N3CCc4c(-c5cc[nH]n5)ccnc43)n2)CC1 (stereo not drawn) [Example 291]	212%

Same assay, conditions: HEK293, Concentration for evaluation 1 μM; HEK293 cell line stably expressing human Nav1.1; read-out: Nav1.1 current amplification rate (%)

SMILES	activation at 1 µM
CN(c1cnc2cnn(CC(=O)Nc3ccc4ncncc4c3)c2n1)C1CC(C)(C)C1 [Example 758]	61%

Same assay, conditions: HEK293, Concentration for evaluation 10 μM; HEK293 cell line stably expressing human Nav1.1; read-out: Nav1.1 current amplification rate (%)

SMILES	activation at 10 µM
CC1CC2(C1)CN(c1cnc3cnn(CC(=O)Nc4ccc(C#N)nc4)c3n1)C2 [Example 749]	63%
CN(c1cnc2cnn(CC(=O)NCCc3ccccc3F)c2n1)C1CC2(CC2)C1 [Example 750]	27%

Same assay, conditions: HEK293, Concentration for evaluation 50 μM; HEK293 cell line stably expressing human Nav1.1; read-out: Nav1.1 current amplification rate (%)

SMILES	activation at 50 µM
Cc1ccc(-c2cnc3cnn(CC(=O)N4CCN(c5ccncc5)CC4)c3n2)c(F)c1 [Example 743]	39%

Same assay, conditions: HEK293, concentration for evaluation 1 μM; HEK293 stably expressing human Nav1.1; read-out: Nav1.1 current amplification rate (%)

SMILES	activation at 1 µM
N#Cc1ccc(NC(=O)Cn2ncc3ccc(N4CCC5(CC5)C(F)(F)C4)nc32)cn1 [Example 890]	68%
Cc1cc(NC(=O)Cn2ncc3ccc(N(C)C4CC4)nc32)cc2ncnn12 [Example 886]	125%
CN(CC1CCC1)c1ncc2cnn(CC(=O)Nc3cnc4cccnc4c3)c2n1 [Example 846]	158%

Same assay, conditions: HEK293, concentration for evaluation 10 μM; HEK293 stably expressing human Nav1.1; read-out: Nav1.1 current amplification rate (%)

SMILES	activation at 10 µM
CC1CC=C(c2ccc3cnn(CC(=O)N4CCN(c5cccnc5)CC4)c3c2)CC1 (stereo not drawn) [Example 893]	31%

Same assay, conditions: concentration for evaluation 1 μM; HEK293 stably expressing human Nav1.1

SMILES	Nav1.1 current amplification rate (%)
CC1CC=C(c2cnc3cnn(CC(=O)Nc4ccn5ncnc5c4)c3n2)CC1 (stereo not drawn) [Example 896, 2-[6-(4-methylcyclohex-1-en-1-yl)-1H-pyrazolo[3,4-b]pyrazin-1-yl]-N-([1,2,4]triazolo[1,5-a]pyridin-7-yl)acetamide]	241%
O=C(Cn1ncc2cnc(N3CCC4(CCC4)CC3)nc21)Nc1ccc2ncnn2c1 [Example 811]	23%
CC1CC=C(c2ccc3cnn(CC(=O)Nc4ccn5ccnc5c4)c3n2)CC1 (stereo not drawn) [Example 864]	160%
O=C(Cn1ncc2cnc(N3CCC4(CCC4)C3)nc21)Nc1ccc2cncnc2c1 [Example 807]	86%
CC1CCN(c2ccc3cnn(CC(=O)Nc4ccc5cncnc5c4)c3n2)CC1 [Example 877]	263%
CC1CCN(c2ncc3cnn(CC(=O)Nc4ccc5ncnn5c4)c3n2)CC1(F)F (stereo not drawn) [Example 815]	86%
CC1CCN(c2ccc3cnn(CC(=O)Nc4ccc5ocnc5c4)c3n2)CC1 [Example 876]	98%
